Measured values reported in publication PMC9465256, “Discovering monoacylglycerol lipase inhibitors by a combination of fluorogenic substrate assay and activity-based protein profiling” (Frontiers in Pharmacology, 2022).
Structures can show the parent of a compound that is named as a salt.

Legend:
Format in all cases: biochemical
human MAGL = biological target: T1, human MAGL (Homo sapiens, UniProt Q99685); experiment: MAGL activity assay (AA-HNA fluorogenic substrate); conditions: read-out: MAGL Inhibition (%); for activity / activity at 100 µM: 100 µM, AA-HNA substrate assay, Supplementary Table 1
T1 construct: expressed in transfected cells; host or cells: HEK293T (transient transfection; membrane fraction)
T1 sequence (Q99685 1-303): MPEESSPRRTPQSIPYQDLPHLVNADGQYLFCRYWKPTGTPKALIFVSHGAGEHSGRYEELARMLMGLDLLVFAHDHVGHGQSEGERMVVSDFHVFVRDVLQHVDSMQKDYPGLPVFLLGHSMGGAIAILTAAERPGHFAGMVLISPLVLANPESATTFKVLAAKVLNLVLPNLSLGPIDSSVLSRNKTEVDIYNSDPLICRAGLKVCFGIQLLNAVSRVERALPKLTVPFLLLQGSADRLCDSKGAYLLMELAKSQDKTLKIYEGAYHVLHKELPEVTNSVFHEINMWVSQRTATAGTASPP
Method: (§1) HEK293T cells were cultured at 37°C under 5% CO2 in a DMEM medium with stable glutamine and phenolred, containing 10% fetal bovine serum (FBS, Gibco), penicillin, and streptomycin. The cells were passaged every 2–3 days by resuspension in the medium at ∼90% confluence. The membranes used in this study were prepared from transiently transfected HEK293T cells. Briefly, 1 day prior to transfection, ∼10^7 cells were seeded in 15 cm plates, and then the cells were transfected by the addition of a mixture of polyethyleneimine and plasmid DNA (3:1, 60, and 20 µg) in 2 ml of medium (without serum). Of note, the empty pcDNA3.1 vector was used in the Mock-control. After 24 h, the medium was removed and the cells were refreshed with fresh medium. After 72 h, the cells were harvested by suspending in 20 ml of medium, and the supernatant was removed by centrifugation for 10 min at 1,000 rpm. The cell pellet was flash frozen in liquid nitrogen and stored at −80°C until use. Subsequently, the cell pellets were suspended in lysis buffer (30 mM Tirs, pH 7.5, 1 mM MgCl2, 25 U/ml Benzonase), which was homogenized by sonication (3 × 10 bursts) and incubated for 30 min on ice. The membrane fractions overexpressing MAGL/ABHD6/ABHD12 were separated by ultracentrifuge (100,000 g, 30 min, 4 C). The protein concentration was determined with a Qubit protein assay (Invitrogen). The protein samples were quickly frozen in liquid nitrogen and stored at −80 C until use.
The MAGL activity assay is based on the hydrolysis of 2-arachidonoylglycerol-based fluorogenic substrate by MAGL-overexpressing membrane preparations from transiently transfected HEK293T cells. In brief, the reactions were performed in HEPES buffer (40 mM HEPES, pH 7.5, 0.1 mg/ml BSA) in black, flat bottom 96-well plates. […] After the incubation of the inhibitor-protein complex for 30 min, 10 µl of the fluorogenic substrate (AA-HNA, 200 µM) was added and fluorescence was measured in 1 min intervals for 30 min on a plate reader (BioTek). […] All the measurements were performed in N = 2, n = 2 for inhibitors and N = 2, n = 4 for controls with Z′ value ≥0.6. The slope is determined in 5–15 min for all the experiments.

human ABHD6 = biological target: T2, human ABHD6 (Homo sapiens, UniProt Q9BV23); experiment: ABHD6 activity assay (AA-HNA fluorogenic substrate); conditions: for activity / activity at 100 µM: 100 µM, AA-HNA substrate assay, Supplementary Table 2; for activity / activity at 100 µM / percent inhibition of ABHD6 at 100 µM: read-out: ABHD6 Inhibition (%)
T2 construct: expressed in transfected cells; host or cells: HEK293T (transient transfection; membrane fraction)
T2 sequence (Q9BV23 1-337): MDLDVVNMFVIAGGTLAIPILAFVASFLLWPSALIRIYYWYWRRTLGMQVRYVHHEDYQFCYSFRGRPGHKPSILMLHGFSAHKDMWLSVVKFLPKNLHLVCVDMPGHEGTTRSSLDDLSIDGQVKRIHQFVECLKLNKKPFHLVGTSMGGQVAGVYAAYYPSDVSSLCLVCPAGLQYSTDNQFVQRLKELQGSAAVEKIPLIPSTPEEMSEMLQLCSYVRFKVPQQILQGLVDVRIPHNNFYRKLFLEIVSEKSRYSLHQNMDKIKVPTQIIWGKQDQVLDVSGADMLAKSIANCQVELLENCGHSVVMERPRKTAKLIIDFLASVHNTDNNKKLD
Method: as §1
The MAGL activity assay is based on the hydrolysis of 2-arachidonoylglycerol-based fluorogenic substrate by MAGL-overexpressing membrane preparations from transiently transfected HEK293T cells. In brief, the reactions were performed in HEPES buffer (40 mM HEPES, pH 7.5, 0.1 mg/ml BSA) in black, flat bottom 96-well plates. The final protein concentration of membrane fractions from overexpressing human MAGL HEK293T cells was 12.5 μg/ml 5 µl of inhibitors were added from×40 concentrated DMSO stocks in the 96-well plate containing 145 µl assay buffer, followed by the addition of 40 µl of the protein (12.5 μg/ml). After the incubation of the inhibitor-protein complex for 30 min, 10 µl of the fluorogenic substrate (AA-HNA, 200 µM) was added and fluorescence was measured in 1 min intervals for 30 min on a plate reader (BioTek). Final assay concentrations: 12.5 μg/ml MAGL, […], and […] in the total volume of 200 µl. All the measurements were performed in N = 2, n = 2 for inhibitors and N = 2, n = 4 for controls with Z′ value ≥0.6. The slope is determined in 5–15 min for all the experiments.
The ABHD6 activity assay is based on the same principle as the MAGL activity assay described earlier, but with human ABHD6 overexpressing membrane preparations at a final protein concentration of 50 μg/ml and 200 µM AA-HNA. Other conditions are the same as those of the MAGL activity assay.

human ABHD12 = biological target: T3, human ABHD12 (Homo sapiens, UniProt Q8N2K0); experiment: ABHD12 activity by competitive ABPP with FP-TAMRA; conditions: read-out: ABHD12 Inhibition (%); for activity / activity at 100 µM: 100 µM compound, competitive ABPP with probe FP-TAMRA (250 nM)
T3 construct: expressed in transfected cells; host or cells: HEK293T (transient transfection; membrane fraction)
T3 sequence (Q8N2K0 1-398): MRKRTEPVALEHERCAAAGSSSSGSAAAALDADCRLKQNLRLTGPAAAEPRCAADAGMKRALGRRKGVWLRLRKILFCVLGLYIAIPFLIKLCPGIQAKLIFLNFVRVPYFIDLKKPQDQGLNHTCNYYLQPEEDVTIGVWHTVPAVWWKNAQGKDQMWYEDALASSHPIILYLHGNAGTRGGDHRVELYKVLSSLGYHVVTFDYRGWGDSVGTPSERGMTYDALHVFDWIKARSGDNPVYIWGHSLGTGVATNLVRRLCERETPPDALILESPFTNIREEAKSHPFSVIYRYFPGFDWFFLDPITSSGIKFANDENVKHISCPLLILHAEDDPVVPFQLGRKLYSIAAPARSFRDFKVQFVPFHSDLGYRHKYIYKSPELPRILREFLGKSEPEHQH
Method: as §1
The ABHD12 activity assay is based on competitive activity-based protein profiling (ABPP) with human ABHD12 overexpressing membrane fractions. Briefly, the membrane proteome (1 mg/ml, 20 µl) was incubated at room temperature with 0.5 µl DMSO (vehicle) or inhibitor for 30 min. Subsequently, the samples were treated with the activity-based probe FP-TAMRA (250 nM, final concentration) for 20 min. The reactions were then quenched by 10 µl sample buffer (×4) (final concentrations: 60 mM Tris, pH 6.8, 2% (w/v) SDS, 10% (v/v) glycerol, 5% (v/v) β-mercaptoethanol, 0.01% (v/v) bromophenol blue). The samples were directly loaded and resolved on SDS-PAGE gel (10% acrylamide), which were then scanned using a ChemiDoc MP system (Cy3 settings, BioRad).

| Compound | activity at 100 µM (human MAGL) [%] | activity at 100 µM (human ABHD6) [%] | activity at 100 µM (human ABHD12) [%] | further results |
| --- | --- | --- | --- | --- |
| C[N+](C)(C)CC(O)CC(=O)O (racemic) [compound 27, DL-Carnitine HCl] |  |  |  | activity (human MAGL): 97.6%; activity (human ABHD6): 88.9%; activity (human ABHD12): 76.6% |
| O=C(c1cccc(-c2ccc(-c3cn(C(=O)N4CCCCC4c4ccccc4)nn3)cc2)c1)N1CCCCC1 (stereo not shown) [KT185, reference compound] |  |  |  | effect on fluorescent signal of AA-HNA hydrolysis by ABHD6 (human ABHD6; 10 µM): blocked |
| O=C(O[C@@H]1Cc2c(O)cc(O)cc2O[C@@H]1c1cc(O)c(O)c(O)c1)c1cc(O)c(O)c(O)c1 [compound 2, (-)-Epigallocatechin Gallate] | 38.9 | 95 | 59.6 |  |
| CC(=O)c1c(O)c(C)c(O)c2c1OC1=CC(=O)C(C(C)=O)C(=O)C12C [compound 3, D-Usnic Acid] |  |  |  | activity (human MAGL): 85.6%; activity (human ABHD6): 97.9%; activity (human ABHD12): 68.8% |
| O=C(O)CCCc1c[nH]c2ccccc12 [compound 4, 3-Indolebutyric acid] | 85.4 | 97.2 | 77.2 |  |
| Cc1cc(=O)oc2cc(O)ccc12 [compound 5, 4-Methylumbelliferone] | 90.1 | 92.5 | 71 |  |
| N#C[C@H](O[C@@H]1O[C@H](CO[C@@H]2O[C@H](CO)[C@@H](O)[C@H](O)[C@H]2O)[C@@H](O)[C@H](O)[C@H]1O)c1ccccc1 [compound 7, Amygdalin] | 75.9 | 90.2 | 69.8 |  |
| C=C1CC[C@@H]2[C@](C)(CO)[C@H](O)CC[C@@]2(C)[C@@H]1C/C=C1/C(=O)OC[C@H]1O [compound 8, Andrographolide] | 83.5 | 81.8 | 61.9 |  |
| OC[C@H]1O[C@@H](Oc2ccc(O)cc2)[C@H](O)[C@@H](O)[C@@H]1O [compound 10, Arbutin] | 84.2 | 83.2 | 66.6 |  |
| C[C@H]1[C@H](OC(=O)CCC(=O)O)O[C@@H]2O[C@@]3(C)CC[C@H]4[C@H](C)CC[C@@H]1[C@@]24OO3 [compound 11, Artesunate] | 106 | 46.5 | 56.2 |  |
| C[C@H]1[C@H](C)CC[C@]2(C(=O)O)CC[C@]3(C)C(=CC[C@@H]4[C@@]5(C)C[C@@H](O)[C@H](O)[C@@](C)(CO)[C@@H]5CC[C@]43C)[C@H]12 [compound 12, Asiatic acid] | 86 | 95.6 | 72.4 |  |
| O=[N+]([O-])c1ncc[nH]1 [compound 13, Azomycin] | 89.9 | 112 | 87.7 |  |
| O=c1cc(-c2ccccc2)oc2cc(O)c(O)c(O)c12 [compound 14, Baicalein] | 64.3 | 131 | 82.7 |  |
| O=C(O)[C@H]1O[C@@H](Oc2cc3oc(-c4ccccc4)cc(=O)c3c(O)c2O)[C@H](O)[C@@H](O)[C@@H]1O [compound 15, Baicalin] | 80.3 | 121 | 85.9 |  |
| COc1c(O)cc2c(c1O)[C@@H]1O[C@H](CO)[C@@H](O)[C@H](O)[C@H]1OC2=O [compound 16, Bergenin] | 124 | 110 | 88 |  |
| CC(C)(C)[C@]1(O)CC2OC(=O)CC23C(=O)OC2OC(=O)[C@H](O)C231 (stereo partly shown) [compound 18, Bilobalide] |  |  |  | percent inhibition at 100 µM (human MAGL): 97.8%; percent inhibition of ABHD6 at 100 µM (human ABHD6): 99.5%; percent inhibition at 100 µM (human ABHD12): 83% |
| O=C(O)/C=C/c1ccc(O)c(O)c1 [compound 19, Caffeic Acid] |  |  |  | activity (human MAGL): 90.1%; activity (human ABHD6): 108%; activity (human ABHD12): 83.7% |
| O=C(/C=C/c1ccc(O)c(O)c1)O[C@@H]1C[C@](O)(C(=O)O)C[C@@H](O)[C@H]1O [compound 20, Chlorogenic acid] | 95.2 | 102 | 78.1 |  |
| C=C[C@H]1CN2CC[C@H]1C[C@H]2[C@H](O)c1ccnc2ccccc12 [compound 21, Cinchonidine] | 59.3 | 109 | 77.6 |  |
| O=c1cc(-c2ccccc2)oc2cc(O)cc(O)c12 [compound 22, Chrysin] | 93.2 | 105 | 84 |  |
| O=c1cccc2n1C[C@@H]1CNC[C@H]2C1 [compound 25, Cytisine] |  |  |  | percent inhibition at 100 µM (human MAGL): 99%; percent inhibition of ABHD6 at 100 µM (human ABHD6): 104%; percent inhibition at 100 µM (human ABHD12): 87.9% |
| C[C@H]1[C@@H](O)O[C@@H]2O[C@@]3(C)CC[C@H]4[C@H](C)CC[C@@H]1[C@@]24OO3 [compound 26, Dihydroartemisinin] | 92.5 | 89.2 | 81.1 |  |
| Cc1cc(O)c2c(c1)C(=O)c1cc(O)cc(O)c1C2=O [compound 28, Emodin] | 63.2 | 87.9 | 67.6 |  |
| O=c1c(O)c(-c2ccc(O)c(O)c2)oc2cc(O)ccc12 [compound 29, Fisetin] | 76.2 | 82.4 | 51.9 |  |
